Literature values in patent US10144913B1, “Method to increase the yield of products in plant material” (Arkansas State University-Jonesboro, priority 2012, dated 2018).

Columns and labels:
rotavirus = rotavirus infected HT29.f8 cells; Ball et al., 2015
HL-60 cells = conditions: caspase-dependent and caspase-independent pathways, Huang et al., 2010
cannabinoid receptors = conditions: US 20120165281
[1] = target: type II cannabinoid receptor (Homo sapiens, UniProt P34972); conditions: effect of the isoprenyl moiety; Brents et al., 2012
Chain of type II cannabinoid receptor (P34972 whole entry): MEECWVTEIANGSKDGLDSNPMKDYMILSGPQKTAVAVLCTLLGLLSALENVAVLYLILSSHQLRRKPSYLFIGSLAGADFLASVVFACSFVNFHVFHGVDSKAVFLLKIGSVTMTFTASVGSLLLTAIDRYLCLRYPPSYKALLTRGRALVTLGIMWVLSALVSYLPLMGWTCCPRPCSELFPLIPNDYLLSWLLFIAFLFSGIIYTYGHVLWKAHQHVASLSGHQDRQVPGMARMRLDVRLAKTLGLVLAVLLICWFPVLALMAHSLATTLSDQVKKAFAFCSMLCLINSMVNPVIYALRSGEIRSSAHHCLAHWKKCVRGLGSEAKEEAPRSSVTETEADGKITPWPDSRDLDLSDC

[2] = in vitro, compared to resveratrol; US 20120165281
[3] = in vitro, compared to resveratrol

CC(C)/C=C/c1c(O)cc(/C=C/c2ccc(O)c(O)c2)cc1O [arachidin-1]
antiviral activity (inhibiting rotavirus replication) (rotavirus): exhibited antiviral activity
anticancer activity (HL-60 cells): anticancer activity
affinity to cannabinoid receptors (cannabinoid receptors): have affinity
binding affinity to type II cannabinoid receptor [1]: improved binding affinity
metabolic profiles [2]: favorable metabolic profiles
antioxidant activities [3]: higher antioxidant activities than resveratrol

CC(C)/C=C/c1c(O)cc(/C=C/c2ccc(O)cc2)cc1O [arachidin-3]
antiviral activity (inhibiting rotavirus replication) (rotavirus): exhibited antiviral activity
affinity to cannabinoid receptors (cannabinoid receptors): have affinity
binding affinity to type II cannabinoid receptor [1]: improved binding affinity
metabolic profiles [2]: favorable metabolic profiles

Oc1ccc(C=Cc2cc(O)cc(O)c2)cc1 [resveratrol, reference compound]
antiviral activity (inhibiting rotavirus replication) (rotavirus): not observed
